Consider ten molecules from PubChem BioAssay (NCI).

Common to all, as to assay: NCI tumour cell line growth inhibition, 48 h
Experiment [1] concerns COLO 205 colon.
The subject of experiment [2] is HCC-2998 colon.
Experiment [3] has as its system HCT-15 colon.
Experiment [4] concerns HOP-62 NSCLC.
Experiment [5] concerns IGROV1 ovarian.
The subject of experiment [6] is K-562 leukemia.
Experiment [7] has as its system NCI-H226 lung.
Experiment [8] deals with SK-OV-3 ovarian.
Experiment [9] has as its system SNB-19 CNS.
Experiment [10] has as its system SR leukemia.

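1) Cells in 96-well plates. 2) Compound, 48 h, 5 concentrations. 3) Linear interpolation between surrounding doses. 4) Unreached endpoint = highest concentration. The concentration for 50% growth inhibition is given as GI50. TGI marks complete inhibition of growth.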

In the case of `CC(Cl)CC(=O)Nc1ccc2c(c1)oc(=O)c1cc(NC(=O)CC(C)Cl)ccc12` (centres undefined), the GI50 in experiment [1] was 14.4 µM; in [2], 34.9 µM; in experiment [3], 13.2 µM; in experiment [4], 11.5 µM; in [5] it was 1.73 µM; in [6], 13.8 µM. The GI50 in experiment [7] was 23.6 µM; in experiment [8], 15.6 µM; in [9], 20.4 µM; in [10] it was 3.42 µM. Moreover, the TGI in experiment [1] was over 100 µM; in experiment [2] it was over 100 µM; in [3] it was 45.8 µM; in experiment [4], 28.2 µM; in [5], 23.1 µM; in experiment [6] it was 33.6 µM. The TGI in [7] is over 100 µM; in [8], 76.7 µM; in experiment [9] it was 69.7 µM; in experiment [10] it was 20.7 µM.

Regarding `CCCCCCCCSC(SCCCCCCCC)=C1C(=O)N(c2ccccc2)N=C1C`, the TGI in experiment [1] was 46.5 µM; in [2], over 100 µM; in experiment [3], over 100 µM; in experiment [4], over 100 µM; in experiment [5], over 100 µM; in [6] it was 84.6 µM. Besides, the TGI in experiment [7] is over 100 µM; in [8] it was over 100 µM; in experiment [9], over 100 µM; in experiment [10], 34.6 µM.

With `NC(=O)Cn1c(=O)[nH]c(=O)c2[nH]cnc21`, the TGI in experiment [1], in experiment [2], in experiment [3], in [4], in experiment [5] and in experiment [6] was over 100 µM throughout. The TGI in [7], in [8], in experiment [9] and in experiment [10] was over 100 µM throughout.

Regarding `O=c1c2c(=NCCCN3CCCC3)cc3c(=O)n(CCCN4CCCC4)c(=O)c4c(NCCCN5CCCC5)cc(c(O)n1CCCN1CCCC1)c2c4-3`, the GI50 in [1] was 1.89 µM; in experiment [2], 6.84 µM; in experiment [3], 6.91 µM; in experiment [4], 1.42 µM; in experiment [5] it was 3.51 µM; in experiment [6], 3.36 µM. The GI50 in experiment [7] was 1.07 µM; in experiment [8] it was 2.4 µM; in [9], 2.11 µM; in experiment [10], 6.88 µM. The TGI in [1] is 4.21 µM; in experiment [2] it was 23.1 µM; in [3] it was over 100 µM; in experiment [4], 4.54 µM; in [5], 12 µM; in [6] it was over 100 µM. Further, the TGI in experiment [7] stood at 7.8 µM; in experiment [8] it was 6.93 µM; in experiment [9], 10.6 µM; in experiment [10] it was 81.9 µM.

In the case of `CCn1cc(C2NC(=O)c3cc(F)ccc3N2)c2cccc(Cl)c21` (centres undefined), the GI50 in experiment [1] is 0.349 µM; in experiment [2], 0.348 µM; in experiment [3], 0.0968 µM; in experiment [4] it was 0.485 µM; in experiment [5] it was 0.388 µM; in experiment [6], 0.0414 µM. Besides, the GI50 is 0.664 µM in experiment [7], 0.706 µM in experiment [8], 0.382 µM in experiment [9] and 0.039 µM in experiment [10]. The TGI in experiment [2] is over 25.5 µM; in experiment [3], over 100 µM; in [4], over 100 µM; in experiment [5], over 100 µM; in experiment [6], over 100 µM; in [7], 9.63 µM. Besides, the TGI in [8], in experiment [9] and in experiment [10] was over 100 µM throughout.

Regarding `Cn1cc(/C=C2\C(=O)Nc3cccnc32)c2ccccc21`, the GI50 in experiment [1] was 20.6 µM; in experiment [2], over 25 µM; in [3], over 17.3 µM; in experiment [4], over 25 µM; in experiment [5], 6.82 µM; in experiment [6], over 18.4 µM. The GI50 is 10.8 µM in experiment [7], 17 µM in [8], over 25 µM in experiment [9] and over 25 µM in experiment [10]. In addition, the TGI in experiment [1], in [2], in experiment [3], in experiment [4], in experiment [5] and in experiment [6] was over 25 µM throughout. Also, the TGI in experiment [7], in experiment [8], in experiment [9] and in [10] was over 25 µM each time.

For `Cc1cc(I)cc(CN(C)CCCCN2CCCC2)c1O`, the GI50 is 13.4 µM in experiment [1]; 18 µM in experiment [2]; 15.6 µM in experiment [3]; 16.4 µM in [4]; 24.8 µM in experiment [5]; 11.3 µM in experiment [6]. The GI50 in [7] is 30 µM; in experiment [8], 21.6 µM; in experiment [9] it was 27.8 µM; in experiment [10], 11.5 µM. The TGI in experiment [1] turned out to be 26.1 µM; in experiment [2] it was 36.3 µM; in [3], 37.3 µM; in experiment [4], 33.9 µM; in [5], 59.1 µM; in experiment [6], 24.2 µM. Besides, the TGI was over 100 µM in experiment [7], 67.8 µM in experiment [8], 96.1 µM in experiment [9] and 29.4 µM in experiment [10].

Take `CC(C)S(=O)(=O)n1c(N)nc2ccc(/C(=N/O)c3ccccc3)cc21`: the TGI was 33.5 µM in experiment [1]; 53.2 µM in experiment [2]; 79.3 µM in experiment [3]; 40.8 µM in experiment [4]; 48 µM in [5]; over 100 µM in experiment [6]. Further, the TGI in [7] was 23.4 µM; in experiment [8], 83 µM; in experiment [9], over 100 µM; in [10], 27.2 µM.

Turning to `COc1ccc(C2CC(C)=Nc3c([nH]c(=S)[nH]c3=O)N2)cc1` (centres undefined), the TGI in experiment [1] worked out at 32.7 µM; in [2] it was 30.3 µM; in [3], 33 µM; in [4] it was 68.5 µM; in experiment [5], 34.5 µM; in [6], 34.4 µM. Besides, the TGI in experiment [7] stood at 44.6 µM; in experiment [8], 38.2 µM; in [9], 37.5 µM; in [10] it was 65 µM.

`C1CCN2CC34CC(CC5CCCN(C6CCCC3N6)C54)C2C1` (centres undefined): the TGI in [1], in [2], in [3], in experiment [4], in [5] and in experiment [6] was over 100 µM in each case. For the same molecule, the TGI in experiment [7], in experiment [8], in experiment [9] and in experiment [10] was over 100 µM in each case.
